From patent US7855292B2, “Sulfonamide compounds” (Janssen Pharmaceutica NV, priority 2004, dated 2010) come the findings set out here.

Where a name gives a salt, the structure may show the parent alone.

In one test the target is T1, CCK2 receptor (Homo sapiens, UniProt P32239).
T1 construct: analyzed for ZFP expression as well as CCK2R induction upon addition of doxycycline to the culture medium; endogenous in cells
T1 sequence (P32239 1-447): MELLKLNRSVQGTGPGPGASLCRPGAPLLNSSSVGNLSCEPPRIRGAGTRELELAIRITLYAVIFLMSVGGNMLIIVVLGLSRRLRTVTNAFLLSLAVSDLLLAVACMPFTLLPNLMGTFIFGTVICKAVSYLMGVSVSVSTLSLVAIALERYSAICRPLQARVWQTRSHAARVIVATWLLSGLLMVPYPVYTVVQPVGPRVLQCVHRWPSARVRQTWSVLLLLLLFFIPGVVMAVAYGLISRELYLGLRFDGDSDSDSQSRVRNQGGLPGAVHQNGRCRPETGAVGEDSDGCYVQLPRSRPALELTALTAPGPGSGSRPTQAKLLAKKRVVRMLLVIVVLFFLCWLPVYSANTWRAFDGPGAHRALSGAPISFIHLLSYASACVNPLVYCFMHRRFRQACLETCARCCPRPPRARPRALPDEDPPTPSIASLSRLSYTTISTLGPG
Nature of the test: CCK2 binding assay ([125I]-BH-CCK-8S displacement, HEKZFP membranes). The settings on record: membranes of doxycycline-induced HEKZFP cells; 20 pM [125I]-BH-CCK-8S; 60 min at 21±3° C. How it is done: 2. CCK2 Assay Development and Data Generation
Zinc Finger Proteins (ZFP) specific for the CCK2R gene were identified by Sangamo Biosciences. The ZFP domain was fused with the herpes simplex virus VP16 activation domain, and the fusion protein was subsequently cloned into the pcDNA3 mammalian expression vector (Invitrogen, San Diego, Calif.). […] After 2 weeks of selection in culture medium containing […] Zeocin (Invitrogen), sixty drug-resistant stable clones were isolated and analyzed for ZFP expression as well as CCK2R induction upon addition of doxycycline to the culture medium.
HEKZFP cells were grown in DMEM supplemented with L-glutamine (2 mM), penicillin (50 units/mL) and streptomycin (50 μg/mL) and 10% FBS (v/v).
Membranes were prepared from the HEKZFP cells after induction. […] The thawed pellets were homogenized using a Polytron PT-10 (7×1 s). The homogenates were centrifuged for 5 min at 1500 rpm (600×g), and the resulting pellets were discarded. The supernatants were re-centrifuged in order to collect the receptor-membrane pellets (25 min 15,000 rpm; 39,800×g), which were re-suspended in buffer A.
The assay preparation was incubated for 1 h at 21±3° C., and then the assay was terminated by rapid filtration of the preparation under reduced pressure. The loaded filters were washed three times using undiluted PBS (100 μL), and then 100 μL of scintillation fluid was added to the filter plate. Bound radioactivity was determined using a Topcount (Packard BioScience, Meriden, Conn.) with a count time of 1 min. […] To validate the radioligand concentration and incubation time for the assay, saturation and kinetic binding studies were also conducted (see M. F. Morton, The Pharmacological Characterization of Cholecystokinin Receptors in the Human Gastrointestinal Tract. PhD Thesis, University of London, 2000). […] The assay was then terminated according to the procedure outlined above.
(§1) 3. Data Analysis for CCK1 and CCK2 Binding Assays
The pKi values were determined using the equation of Y.-C.
(§2) [formula] To circumvent problems associated with computer-assisted data analysis of compounds with low affinity, the data obtained in the current study were weighted according to a method described by Morton. In brief, 100% and 0% specific binding were defined independently using total binding and binding obtained in the presence of a high concentration of the reference antagonist, 2-NAP.
Take `O=C(N[C@H](C(=O)O)C(c1ccc(Cl)cc1)c1ccc(Cl)cc1)c1ccc(Cl)cc1NS(=O)(=O)c1cccc2nsnc12` [Example 106, (S)-2-[2-(Benzo[1,2,5]thiadiazole-4-sulfonylamino)-4-chloro-benzoylamino]-3,3-bis-(4-chloro-phenyl)-propionic acid]: the “CCK2 pKi” value is 5.9.

Regarding `O=C(N[C@@H](Cc1ccc(F)c(Br)c1)C(=O)O)c1cc(Cl)c(Cl)cc1NS(=O)(=O)c1cccc2nsnc12` [Example 157, (S)-2-[2-(Benzo[1,2,5]thiadiazole-4-sulfonylamino)-4,5-dichloro-benzoylamino]-3-(3-bromo-4-fluoro-phenyl)-propionic acid], the “CCK2 pKi” value came out at 8.0.

The same test, now with this note: membranes of doxycycline-induced HEKZFP cells; 20 pM [125I]-BH-CCK-8S; 60 min at 21±3° C.; read-out: CCK2 pKi (converted).
Take `O=C(N[C@@H](Cc1ccccc1)C(=O)O)c1ccc(Br)cc1NS(=O)(=O)c1cccc2nsnc12` [Example 25, 2-[2-(Benzo[1,2,5]thiadiazole-4-sulfonylamino)-4-bromo-benzoylamino]-3-phenyl-propionic acid]: the Ki was 0.0398 µM.

Consider `O=C(N[C@@H](Cc1ccccc1)C(=O)O)c1ccc(I)cc1NS(=O)(=O)c1cccc2nccnc12` [Example 27, 2-[4-Iodo-2-(quinoxaline-5-sulfonylamino)-benzoylamino]-3-phenyl-propionic acid], for which the Ki is 0.0316 µM.

For the compound `O=C(N[C@@H](Cc1ccccc1)C(=O)O)c1ccc(I)cc1NS(=O)(=O)c1cccc2scnc12` [Example 28, 2-[2-(Benzothiazole-4-sulfonylamino)-4-iodo-benzoylamino]-3-phenyl-propionic acid], the Ki was 0.0794 µM.

In the case of `CN(CCc1ccccn1)C(=O)c1ccc(Cl)cc1NS(=O)(=O)c1cccc2nsnc12` [Example 51, 2-(Benzo[1,2,5]thiadiazole-4-sulfonylamino)-4-chloro-N-methyl-N-(2-pyridin-2-yl-ethyl)-benzamide hydrochloride], the Ki was 0.794 µM.

As for `N#Cc1cccc(C[C@H](NC(=O)c2ccc(Cl)cc2NS(=O)(=O)c2cccc3nccnc23)C(=O)O)c1` [Example 63, (S)-2-[4-Chloro-2-(quinoxaline-5-sulfonylamino)-benzoylamino]-3-(3-cyano-phenyl)-propionic acid], the Ki is 0.0316 µM.

For `O=C(N[C@@H](Cc1ccsc1)C(=O)O)c1ccc(Cl)cc1NS(=O)(=O)c1cccc2nsnc12` [Example 77, (S)-2-[2-(Benzo[1,2,5]thiadiazole-4-sulfonylamino)-4-chloro-benzoylamino]-3-thiophen-3-yl-propionic acid], the Ki was 0.0316 µM.

With `O=C(N[C@@H](Cc1cccc([N+](=O)[O-])c1)C(=O)O)c1ccc(Cl)cc1NS(=O)(=O)c1cccc2nccnc12` [Example 84, (S)-2-[4-Chloro-2-(quinoxaline-5-sulfonylamino)-benzoylamino]-3-(3-nitro-phenyl)-propionic acid], the Ki was 0.0316 µM.

In the case of `O=C(N[C@@H](Cc1ccc(F)c(F)c1)C(=O)O)c1ccc(Cl)cc1NS(=O)(=O)c1cccc2nccnc12` [Example 85, (S)-2-[4-Chloro-2-(quinoxaline-5-sulfonylamino)-benzoylamino]-3-(3,4-difluoro-phenyl)-propionic acid], the Ki was 0.0631 µM.

For `N#Cc1ccc(C[C@H](NC(=O)c2ccc(Cl)cc2NS(=O)(=O)c2cccc3nccnc23)C(=O)O)cc1` [Example 86, (S)-2-[4-Chloro-2-(quinoxaline-5-sulfonylamino)-benzoylamino]-3-(4-cyano-phenyl)-propionic acid], the Ki is 0.0316 µM.

As to `O=C(N[C@@H](Cc1ccsc1)C(=O)O)c1ccc(Cl)cc1NS(=O)(=O)c1cccc2nccnc12` [Example 87, (S)-2-[4-Chloro-2-(quinoxaline-5-sulfonylamino)-benzoylamino]-3-thiophen-3-yl-propionic acid], the Ki was 0.158 µM.

Another test addresses T2, CCK-1 receptor (Homo sapiens, UniProt P32238).
T2 construct: expressed in transfected cells; host or cells: CHO-K1
T2 sequence (P32238 1-428): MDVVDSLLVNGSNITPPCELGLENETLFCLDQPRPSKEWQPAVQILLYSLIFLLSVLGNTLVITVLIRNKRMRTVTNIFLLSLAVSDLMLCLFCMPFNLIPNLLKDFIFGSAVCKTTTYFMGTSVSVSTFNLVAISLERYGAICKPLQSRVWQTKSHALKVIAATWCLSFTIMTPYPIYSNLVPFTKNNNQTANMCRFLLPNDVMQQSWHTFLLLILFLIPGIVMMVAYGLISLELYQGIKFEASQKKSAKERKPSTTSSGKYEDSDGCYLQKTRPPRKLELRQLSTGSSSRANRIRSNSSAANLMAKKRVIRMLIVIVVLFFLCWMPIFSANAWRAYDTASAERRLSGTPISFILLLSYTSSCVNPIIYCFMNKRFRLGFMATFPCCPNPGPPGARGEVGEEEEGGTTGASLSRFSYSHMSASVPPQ
Nature of the test: CCK1 binding assay ([125I]-BH-CCK-8S displacement, CHO-K1 membranes). The settings on record: membranes of CHO-K1 cells stably transfected with the CCK-1 receptor; 20 pM [125I]-BH-CCK-8S; 0.3 μM PD-134,308 present; 60 min at 21±3° C. How it is done: 1. CCK1 Assay Development and Data Generation
CHO-K1 cells that had undergone stable transfection with the CCK-1 receptor were grown in DMEM supplemented with L-glutamine (2 mM), penicillin (50 units/mL) and streptomycin (50 μg/mL). Cells were cultured under continuous G418 selection (2 mM) and were harvested using a rubber cell scraper. CHO-K1 cells were sub-cultured a maximum of ten times before being reseeded from the original stocks.
Membranes were prepared from the stably transfected CHO-K1 cells. Frozen cell pellets (−40° C.) were thawed in 14 mL of buffer A (10 mM HEPES, 130 mM NaCl, 4.7 mM KCl, 5 mM MgCl, 1 mM EGTA and 15.4 mg/100 mL bacitracin at pH 7.2), adapted from Harper et al. (Br. J. Pharmacol. 1996, 118:1717-1726). The thawed pellets were homogenized using a Polytron PT-10 (7×1 s). The homogenates were centrifuged for 5 min at 1500 rpm (600×g), and the resulting pellets were discarded. The supernatants were re-centrifuged in order to collect the receptor-membrane pellets (25 min 15,000 rpm; 39,800×g), which were re-suspended in buffer A.
All assays were conducted in 96-well plates (GF/B millipore filter plates) using buffer A, with 0.3 μM PD-134,308, for the dilutions. The CCK-2 receptor ligand was included to eliminate the contribution of this receptor subtype to the binding. For the optimal cell number determination experiments 20 pM [^125I]-BH-CCK-8S (50 μL […] solution) was incubated with a range of cell concentrations ([…] to 12.5×10^5 cells/well) in a total volume of 150 μL. Total binding of [^125I]-BH-CCK-8S was determined in the presence of 15 μL of buffer A. Non-specific binding of [^125I]-BH-CCK-8S was determined in the presence of 15 μL of 100 μM 2-naphthalenesulphonyl L-aspartyl-(2-phenethyl)amide (2-NAP: see R. A. Hull et al. Br. J. Pharmacol. 1993, 108:734-740), a CCK-1 receptor selective antagonist that is structurally unrelated to the radioligand [^125I]-BH-CCK-8S. The assay preparation was incubated for 1 h at 21±3° C., and then the assay was terminated upon rapid filtration of the preparation under reduced pressure. The loaded filters were washed three times using undiluted PBS ([…]), and then the residues were transferred to 5 mL scintillation tubes. Bound radioactivity was determined using a gamma counter (count time=1 min). […] To validate the radioligand concentration and incubation time for the assay, saturation and kinetic binding studies were also conducted (see M. F. Morton, The Pharmacological Characterization of Cholecystokinin Receptors in the Human Gastrointestinal Tract. PhD Thesis, University of London, 2000). […] The assay was then terminated according to the procedure outlined above.
as §1
The pKi values were determined using the equation of Y.-C. Cheng and W. H. Prusoff (Biochem. Pharmacol., 1973, 22(23):3099-3108):
as §2
Consider `O=C(NCC(c1ccc(Cl)cc1)c1ccc(Cl)cc1)c1ccc(Cl)cc1NS(=O)(=O)c1cccc2nsnc12` [Example 6, 2-(Benzo[1,2,5]thiadiazole-4-sulfonylamino)-N-[2,2-bis-(4-chloro-phenyl)-ethyl]-4-chloro-benzamide], for which the “CCK1 pKi” value was 7.5.

For `O=C(N[C@@H](Cc1ccc(Cl)c(Cl)c1)C(=O)O)c1ccc(Cl)cc1NS(=O)(=O)c1cccc2nsnc12` [Example 117, (S)-2-[2-(Benzo[1,2,5]thiadiazole-4-sulfonylamino)-4-chloro-benzoylamino]-3-(3,4-dichloro-phenyl)-propionic acid], the “CCK1 pKi” value is reported as 6.6.

Staying with this test, now noted: membranes of CHO-K1 cells stably transfected with the CCK-1 receptor; 20 pM [125I]-BH-CCK-8S; 0.3 μM PD-134,308 present; 60 min at 21±3° C.; read-out: CCK1 pKi (converted).
`C[C@@H](NC(=O)c1ccc(Cl)cc1NS(=O)(=O)c1cccc2nsnc12)C(O)(c1ccccc1)c1ccccc1` [Example 73, (R)-2-(Benzo[1,2,5]thiadiazole-4-sulfonylamino)-4-chloro-N-(2-hydroxy-1-methyl-2,2-diphenyl-ethyl)-benzamide]: the Ki was 0.158 µM.
